Source: patent publication US12122760B2, “Compound, composition, and use thereof in preparation of drug” (CHANGSHA ZEDA MEDICAL TECH. CO., LTD, priority 2019, dated 2024)

How the values were obtained:
[1] = molecular target: T1, AR-LBD (GST) (Rattus norvegicus, UniProt P15207); test: PolarScreen Androgen Receptor (AR) Competitor Assay, binding experiment of the antagonist and AR; conditions: fluorescence polarization, incubated 6 hours, FIG. 1; read-out: IC50 of the drug and AR-LBD binding
T1 construct: purchased Life technologies company, USA
T1 sequence (P15207 651-882 limits assumed): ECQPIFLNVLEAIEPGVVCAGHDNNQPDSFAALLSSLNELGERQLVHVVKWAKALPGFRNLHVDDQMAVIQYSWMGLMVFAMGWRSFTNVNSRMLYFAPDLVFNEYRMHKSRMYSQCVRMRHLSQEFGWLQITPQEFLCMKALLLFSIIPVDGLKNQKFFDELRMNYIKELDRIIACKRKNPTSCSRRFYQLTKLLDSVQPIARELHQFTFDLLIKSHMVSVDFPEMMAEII
Text: PolarScreen™ Androgen Receptor (AR) Competitor Assay, Green kit (Life technologies company, USA) is used to test the affinity of the antagonist to AR-LBD (GST). The mechanism of the experiment is that the AR-LBD is combined with a small molecule fluormone tracer (Fluormone Tracer), and an antagonist added can competitively bind with AR-LBD so as to replace the fluormone tracer, and the replaced fluormone tracer […], and the value of the fluorescence polarization is inversely proportional to the number of the replaced tracers.
A specific process is as follows: the drug is dissolved into 500 uM by using DMSO, and then diluted to 244 nM by double dilution concentration gradients in a 96-well plate. A 10 uL of a reaction system AR-LBD+Tracer is configured in a 384-well plate and 10 uL of the drug solution is added. The positive control is 10 uL of AR-LBD+Tracer with 10 uL of DHT added. The 384-well plate is wrapped by tin foil and incubated for 6 hours in the dark. The fluorescence polarization value is read on a multi-function microplate reader. Graphpad Prism software is used to draw a drug concentration as an abscissa, and the fluorescence polarization value is used as an ordinate for drawing a curve. […] Herein, the DHT, MDV3100, and ARN509 are positive controls.

[2] = system: Histone deacetylase (HDAC); test: HDAC inhibitory activity: Kac-H3 Western Blot in VCaP cells; format: cell-based; conditions: 10 uM drug, 24 h, FIG. 5
Experimental: (§1) The VCap cells are cultured in the 6-well plate. After treating the VCap cells with the drugs for 24 hours, acetylation levels of the tubulin in the cytoplasm and the H3 protein in the nucleus are examined by the western blot. An experiment process is as follows:
The VCaP cells are spread in the 6-well plate. 5×10^5 cells are inoculated per well, and incubated overnight to make the cells stick to a wall. Then 10 uM of the drug is added to each well. The cells are collected after being incubated for 24 h. The EpiQuik Total Histone Extraction kit (Epigentek, USA) is used to extract the histones, and the Western Blot method is used to detect expression levels of Kac-H3 (localized cell nucleus) in the cells after adding the different drugs.

[3] = system: AR-positive VCaP cells; test: Selective effects of the drug to cells (MTS; VCaP versus 293T and DU145); format: cell-based; conditions: 4 days treatment, FIG. 10
Experimental: (§2) 293T cells are AR-negative human embryonic kidney cells, DU145 cells are AR-negative prostate cancer cells, and VCaP cells are AR-positive prostate cancer cells. These three types of the cells are cultured in the 96-well plates and treated with the drugs (in the concentration gradient) respectively for 4 days. Then the inhibition of the drugs on cell proliferation are measure by MTS. Detailed process is as follows:
(§3) The VCaP cells are cultured with 5% CSS and 1640 medium without phenol red, and inoculated in the 96-well plates, and 1×10^4 cells are added to each well. The 293T cells and the DU145 cells are cultured with 10% FBS and 1640 medium, and inoculated in the 96-well plates, and 2×10^3 cells are added to each well. The cells are incubated overnight to make the cells stick to a wall. Then the different concentrations of the drugs are added on the second day. After treatment with the drugs for 4 days, cell viability is measured by the MTS kit (Promega, USA). To each well, 10% of an MTS reagent is added, and incubation continued for 2 hours. The absorbance value at […] is then measured by the multi-functional microplate reader. The Graphpad Prism software is used to draw a curve by using the drug concentration as an abscissa and using the absorbance value of the drug treatment/the absorbance value of the blank treatment cell as an ordinate.

[4] = system: AR-negative cells (293T and DU145); test: Selective effects of the drug to cells (MTS), AR-negative cells; format: cell-based, human; conditions: 293T and DU145, 4 days treatment, FIG. 10
Experimental: as §2, §3

[5] = system: VCaP cells; test: Inhibiting effect on VCaP cell proliferation (MTS); format: cell-based; conditions: 4 days treatment, FIG. 6
Experimental: Androgen-sensitive prostate cancer cell (VCaP cells) are cultured in a 96-well plate. The VCaP cells are able to proliferate in a medium supplemented with 10 nM of the DHT. After treating the cells with the drugs for 4 days, we measure the effects of the drugs on the proliferation of the prostate cancer cells.
as §3, with “cultured by using” for “cultured with”, “96-well plate.” for “96-well plates, and”, “each well,” for “each well. The 293T cells”, “and” for “and the DU145 cells are cultured with 10% FBS and 1640 medium, and inoculated in the 96-well plates, and 2×10^3 cells are added to each well. The cells are”, “wall. Different” for “wall. Then the different”, “After treating the cells” for “After treatment”

[6] = system: Histone deacetylase (HDAC); test: HDAC inhibitory activity: Kac-tubulin Western Blot in VCaP cells; format: cell-based; conditions: 10 uM drug, 24 h, FIG. 4
Experimental: as §1
The VCaP cells are spread in the 6-well plate. 5×10^5 cells are inoculated per well, and incubated overnight to make the cells stick to a wall. On the second day, 10 uM of the drug is added per well. After being incubated for 24 h, the cells are collected, and lysed to extract the cell total protein. The Western Blot method is used to detect the expression levels of Kac-tubilin (localized cytoplasm) in the cells after treating with the different drugs.

[7] = system: AR protein in MDA-MB-453 TNBC cells; test: AR protein Western blot in MDA-MB-453 cells; format: cell-based; conditions: 48 h, FIG. 8
Experimental: MDA-MB-453 cells treated with Zeta55 or Tubastatin A at indicated concentrations for 48 h were harvested and lysed in ice-cold RIPA buffer with protease inhibitor Cocktail. After quantification by BCA, protein (30-50 μg) were separated with 10% SDS-PAGE gels and transferred onto polyvinylidene difluoride (PVDF) membranes. The following antibodies were used in this study: AR(CST,1:1000),α-tubulin(CST,1:1000), Ac-α-tubulin(CST,1:1000). Secondary antibodies: HRP-conjugated anti-mouse IgG and anti-rabbit IgG (Proteintech, 1:5000).

N#Cc1ccc(N2C(=O)C3(CCC3)N(c3ccc(C(=O)NO)c(F)c3)C2=S)cc1C(F)(F)F [Zeta 55, 4-(7-(4-cyano-3-(trifluoromethyl)phenyl)-8-oxo-6-thio-5,7-diazaspiro[3.4]octane-5-yl)-2-fluoro-N-hydroxybenzamide]
IC50 [1]: 29.8 µM
H3 acetylation in the nucleus (HDAC inhibitory activity) [2]: superior
proliferation inhibition effect on AR-positive VCaP cells relative to AR-negative cells (293T and DU145) [3]: more than 20 times
selectivity of proliferation inhibition [3]: selective proliferation inhibition on the AR-positive VCaP cells
cytotoxicity toward AR-negative cells [4]: may have low cytotoxicity toward AR-negative cells
inhibitory effect on the VCap cell proliferation, from high to low [5]: Zeta55>Zeta32>Zeta33>Zeta34>Zeta57
cell proliferation inhibitory effect compared with positive control drug MDV3100 ([5]; VCaP cells): better than that of the positive control drug MDV3100
acetylation of the tubulin in the cytoplasm (HDAC inhibitory activity) [6]: superior
reduction of AR protein [7]: significant dose-dependent reduction of AR protein
